Tests used:
[1] = detection of radiolabelled compound in saliva; type: in vivo
Experimental: For example, in the treatment of adult humans, dosages of from about 0.25 to 50 mg, preferably from 1 to 30 mg, and most preferably 1 to 20 mg per day may be used. A once a day dosage is normally sufficient, although divided doses may be administered. For treatment of cognitive dysfunction, a dose range of from 1 to 30 mg, preferably 1 to 20 mg per day is suitable.

[2] = tested on: muscarinic cholinergic receptor; settings: results of pharmacological studies
[3] = tested on: elderly patients with cognitive dysfunction; experiment: double-blind multicenter clinical trial in elderly patients with cognitive dysfunction; type: in vivo, human; settings: 237 elderly patients (>=65 years), versus placebo; BEHAVE-AD, BPRS and CGI rating scales
Experimental: Changes in behavioral manifestations were measured using the BEHAVE-AD, BPRS, and CGI rating scales, which are known and available to the skilled artisan.

5-HT1C receptor = target: T1, 5-HT1C receptor (Homo sapiens, UniProt P28335); experiment: 5-HT1C receptor activity
T1 sequence (P28335 33-458): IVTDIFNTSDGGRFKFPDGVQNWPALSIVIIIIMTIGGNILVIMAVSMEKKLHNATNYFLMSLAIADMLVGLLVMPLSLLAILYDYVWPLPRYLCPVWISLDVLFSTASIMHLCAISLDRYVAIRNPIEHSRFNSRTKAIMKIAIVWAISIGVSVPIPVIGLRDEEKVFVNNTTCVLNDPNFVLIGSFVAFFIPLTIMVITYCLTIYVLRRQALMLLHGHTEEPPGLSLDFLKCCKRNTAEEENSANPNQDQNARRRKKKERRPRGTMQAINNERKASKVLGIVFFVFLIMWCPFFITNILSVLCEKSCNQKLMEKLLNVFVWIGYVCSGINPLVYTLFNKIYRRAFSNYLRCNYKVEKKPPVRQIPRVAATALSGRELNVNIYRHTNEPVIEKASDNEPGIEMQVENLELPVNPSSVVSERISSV

SMILES | detection in saliva [1] | muscarinic cholinergic receptor activity [2] | changes in behavioral manifestations [3] | activity at the 5-HT1C receptor (5-HT1C receptor)
Cc1cc2c(s1)Nc1ccccc1N=C2N1CCN(C)CC1 [2-methyl-4-(4-methyl-1-piperazinyl)-10H-thieno[2,3-b][1,5]benzodiazepine] | can be detected in the saliva | has muscarinic cholinergic receptor activity | can be useful for the treatment of behavioral manifestations of cognitive dysfunction | 
Cc1cc2c(s1)Nc1ccccc1N=C2N1CCN(C)CC1 [anhydrous Form I compound, 2-methyl-4-(4-methyl-1-piperazinyl)-10H-thieno[2,3-b][1,5]benzodiazepine] |  |  |  | active

Source: patent US6506746B2, “Method for treating cognitive dysfunction” (Eli Lilly and Company, priority 1997, dated 2003)
